Source: patent US10894412B2, “Ink jet recording apparatus” (Seiko Epson Corporation, priority 2018, dated 2021)

Experiments:
[1] = Octanol/water distribution coefficient (log P value, OECD Test Guideline 107); type: physicochemical
Source text: The octanol/water distribution coefficient is a value referred to as a log P value and refers to a value defined in OECD Test Guideline 107. As the log P value is larger, the hydrophobicity is higher. As the log P value is smaller, the hydrophilicity is higher.

[2] = Solubility of organic compound in the ink; type: physicochemical; details: in the ink of Comparative Example 4
Source text: Incidentally, values in the table are in mass percent. Pigment, dye, and dispersion resin in the table each show the amount of solid matter.

With `COC(=O)c1ccc(C(=O)OC)cc1` [dimethyl terephthalate] the octanol/water distribution coefficient [1] was 2.25 and the solubility [2] was “poor”.
